According to the NIST ThermoML archive (doi:10.1016/j.fluid.2007.03.021):
Numbers after ± are expanded uncertainties.

Settings: Liquid

- viscosity (298.15 K, 101.33 kPa, Capillary tube (Ostwald / Ubbelohde) method): 1.082 ± 0.009 mPa·s
- Normal boiling temperature (Ebulliometric method (Recirculating still)): 78.28 ± 0.05 °C
Structure (SMILES): CCO [ethanol]
